Experimental data from a melting point compilation (Tetko et al.).

| Structure (SMILES) | melting point |
| --- | --- |
| c1ccc2c(c1)C1c3ccccc3C2c2ccccc21 | 254 °C |
| Sc1ccc2ccccc2c1 | 81 °C |
| O=C(O)c1ccc(-c2cccs2)s1 | 177 to 178 °C |
| O=C(OCc1ccccc1)OCc1ccccc1 | 29 to 33 °C |
| NC(COc1ccc(C2SCCS2)cc1)=NO | 113 to 115 °C |
| OCc1csc(-c2cccs2)n1 | 87 to 90 °C |
| C=C(C)C1CCC2(CO)CCC3(C)C(CCC4C5(C)CCC(O)C(C)(C)C5CCC43C)C12 (centres undefined) | 250 °C |
| CC(=O)Nc1ccccc1CCN(CCc1ccccc1NC(C)=O)C(C)=O | 188 to 190 °C |
| O=C(Nc1ccc2cc(OC(=O)c3ccccc3)ccc2c1)c1ccccc1 | 224 to 229 °C |
| Cc1nc(C)c(C)nc1C | 85 °C |
| Brc1ccc(Oc2ccc(Br)c(Br)c2Br)c(Br)c1 | 119 to 121 °C |
| O=C(/C=C/c1ccc(Cl)c(Cl)c1)c1ccc2ccccc2c1 | 153 °C |
| CC(=O)Nc1cc(CCNC(=O)c2ccccc2)ccc1CCNC(=O)c1ccccc1 | 176 °C |
| CC12CCC(/C(=C/N(O)c3ccccc3)C1=O)C2(C)C (centres undefined) | 106 to 107 °C |
| Nc1nc2ccccc2[nH]1 | 230 °C |
| FC(F)(Br)C(F)(F)C(F)(F)C(F)(F)C(F)(F)C(F)(F)C(F)(F)C(F)(F)Br | 40 °C |
| Nc1ccc(Cl)cc1C(=O)NCc1cccs1 | 157 to 158 °C |
| CCOC(=O)Nc1nc(N)c(C(N)=O)s1 | 168 to 170 °C |
| Cc1ccc(C2C(C#N)=C(N)Oc3[nH]nc(C(F)(F)F)c32)cc1 (centres undefined) | 185 °C |
| CC(C)C(N)CC(=O)O (centres undefined) | 206 to 209 °C |
| CSc1ncnc2c1cnn2-c1ccccc1 | 115 to 117 °C |
| CSC(=NS(=O)(=O)c1ccc(C)cc1)SC | 109 to 110 °C |
| O=CC1=C(Cl)c2cc(F)ccc2OC1 | 84 to 86 °C |

| Structure (SMILES) | melting point |
| --- | --- |
| O=[N+]([O-])c1cccc(C=Cc2ccccc2)c1 | 102 °C |
| COc1ccc2sc(S)nc2c1 | 196 °C |
| O=CCCc1ccccc1 | 47 °C |
| CC1(O)CC(c2ccccc2)C([N+](=O)[O-])C(c2ccccc2N)O1 (centres undefined) | 148 °C |
| NC(=O)c1c(F)cccc1Cl | 141 °C |
| O=C(Nc1ccc(Cl)c(Cl)c1)c1cc(Cl)cc(Cl)c1O | 162 °C |
| CN1C(=O)C(=NNc2c(Br)cc(Br)cc2Br)C(=O)N(C)C1=O | 165 °C |
| Cc1nc(Cl)ccc1I | 32 °C |
| CCCCCCCCCCC(=O)CC | 31 °C |
| O=C=Nc1ccc(Cl)cc1Cl | 59 to 60 °C |
| CC(C)(C)N(NC(=O)c1ccccc1)C(=O)c1ccc(Cl)cc1Cl | 134 °C |
| Nc1ccc(Cl)c(Cl)c1 | 72 °C |
| OC1CCN(c2nccc(C(F)(F)F)n2)CC1 | 99 to 100 °C |
| N#Cc1c(F)ccc([N+](=O)[O-])c1F | 52.5 °C |
| Cc1ccc2ccc(C)cc2c1 | 97 °C |
| CC(C)CC#N | -101 °C |
| COC(=O)c1cc(Cl)nc(Cl)c1 | 82 to 83 °C |
| CCC(=O)Oc1cccc2ccccc12 | 34 to 35 °C |
| Cc1cc(I)c(C)c(C)c1C | 31 °C |
| CC(=O)Nc1ccc(OCC(O)CNC(C)C)cc1 (centres undefined) | 135 °C |
| CC/C(=N\O)C1CC2(C)CCC1C2(C)C (centres undefined) | 92.5 °C |
| NCc1ccc(OC2CCOCC2)cc1 | 41.5 to 43.5 °C |
| BrC(=NNc1ccccc1)c1ccccc1 | 190 °C |

| Structure (SMILES) | melting point |
| --- | --- |
| O=C(O)C1C2CCC(C2)C1C(=O)c1ccccc1 (centres undefined) | 180 to 183 °C |
| CCC(CO)(CO)COCC(CC)(CO)CO | 110 °C |
| CCCCc1c(C)nc(NC(=O)NS(=O)(=O)c2cccs2)nc1O | 200 to 201 °C |
| C=C[Si](Cl)(Cl)Cl | -95 °C |
| Cc1cc(N)ccc1[N+](=O)[O-] | 135 °C |
| COc1ccc(Br)cc1C#N | 91 °C |
| CC(=O)/C=C(\C)c1ccc(-c2ccccc2)cc1 | 132 to 134 °C |
| c1ccc2c(c1)oc1ccccc12 | 86.5 °C |
| CC1(C)CCCC(C)(C)N1 | 28 °C |
| O=C(Oc1c(F)c(F)c(F)c(F)c1F)c1cccc(-c2nccs2)c1 | 68.5 to 69.5 °C |
| CN1CCN(C(c2ccccc2)c2ccccc2)CC1 | 106 °C |
| Cc1nc2cc3ccccc3cc2o1 | 87 °C |
| CC(C)(C)N(CCO)CCO | 42 °C |
| CC(=O)N1CCC(C(=O)Cl)CC1 | 132 °C |
| CC(C)(C)C=C=C=C=CC(C)(C)C | 135 °C |
| CCOc1ccc(N=C=S)cc1 | 60 to 61 °C |
| O=C(c1ccc(F)cc1)c1ccc([N+](=O)[O-])cc1 | 87 to 89 °C |
| NC(N)=Nc1nc(CSCCC(N)=NS(N)(=O)=O)cs1 | 163 °C |
| O=c1ccocc1 | 32.5 °C |
| COC(=O)c1sc2c(c1N)CSc1ccc(Cl)cc1-2 | 120 °C |
| O=Cc1ccc(CN2CCOCC2)cc1 | 53 to 56 °C |
| O=C(O)CCSC1=CC(=O)C(SCCC(=O)O)=CC1=O | 230 to 236 °C |
| Clc1cc(Cl)c(-c2c(Cl)cc(Cl)c(Cl)c2Cl)cc1Cl | 83 °C |

| Structure (SMILES) | melting point |
| --- | --- |
| N[C@H](CCO)C(=O)O | 205 °C |
| COP(=O)(OC)OC(Br)C(Cl)(Cl)Br (centres undefined) | 27 °C |
| O=C(c1ccc2ccccc2c1)C(Br)c1ccccc1 (centres undefined) | 101 to 108 °C |
| CSc1nc(N)nc(-c2cccs2)n1 | 176 to 177 °C |
| C#CC(C)(CC)OC(=O)c1ccccc1C(=O)O (centres undefined) | 97 °C |
| CC1(C)OC(C)(C(O)C2CCCCC2)CCC1C(=O)O (centres undefined) | 181 °C |
| CCOC(=O)C(C)(/C=C1\C(=O)C2(C)CCC1C2(C)C)/C=C1\C(=O)C2(C)CCC1C2(C)C (centres undefined) | 118 °C |
| CC(C)[C@H]1NC(=O)CNC1=O | 250 to 260 °C |
| COC(=O)c1scc(C#N)c1N | 149 to 150 °C |
| O=C(C=Cc1ccc(Br)o1)c1ccco1 | 76 to 78 °C |
| Nc1nc(N)nc(NC2CC2)n1 | 225 °C |
| Cc1cc(=O)oc2cc(O)ccc12 | 194 °C |
| CCCCC(C)O (centres undefined) | -23 °C |
| CCCCCCCCCCCCCC(=O)OCc1ccccc1 | 20.5 °C |
| O=[N+]([O-])c1cc2nccnc2cc1Cl | 210 to 213 °C |
| COc1ccc(C2C(C#N)=C(N)Oc3[nH]nc(C(F)(F)F)c32)cc1 (centres undefined) | 204 °C |
| C[C@]12CC[C@H]3[C@@H](CCC4CC(=O)CC[C@@]43C)[C@@H]1CC[C@H]2OC=O (some centres undefined) | 124 °C |
| FC(F)(F)COCC(F)(F)F | < 25 °C |
| ON=Cc1ccccc1O | 56 to 59 °C |
| Cc1c(Br)cccc1[N+](=O)[O-] | 40 °C |
| CC(CN1CC(=O)NC(=O)C1)N1CC(=O)NC(=O)C1 (centres undefined) | 238 °C |
| Cc1c(C)c(Br)c(Br)c(Br)c1Br | 262 °C |
| Cc1cccnc1C(=O)O | 119 °C |

| Structure (SMILES) | melting point |
| --- | --- |
| COC(=O)c1cccc(CN2CCOCC2)c1 | 46 to 47 °C |
| Clc1cc(Br)ccn1 | 19 °C |
| COc1cccc2c(=O)c(=O)c12 | 119 °C |
| CC(C)CCCC(C)C1CCC2C3CC(O)C4=CC(=O)CCC4(C)C3CCC12C (centres undefined) | 189 to 193 °C |
| O=Cc1ccc(-c2ccc([N+](=O)[O-])cc2)o1 | 204 to 208 °C |
| Cl/C(=C\c1ccccc1)c1ccc2c3c(cccc13)CC2 | 77 °C |
| Cc1ccccc1N | -16.3 °C |
| CCOC(=O)c1sc(SC)nc1NC(=O)Nc1ccc(Cl)c(Cl)c1 | 158 to 162 °C |
| CC1(c2ccccc2)CC(C(=NOC(=O)Cc2ccccc2)c2cc3ccccc3o2)C1 (centres undefined) | 144 to 145 °C |
| NC(=O)C=CC(F)(F)F | 147 to 150 °C |
| CC(C)(C(=O)O)C(F)(F)F | 70 °C |
| COc1ccc(C(F)(F)F)cc1N | 58 °C |
| Cc1cc(Cl)c(C)cc1N | 94 to 96 °C |
| CP(=O)(c1ccccc1)c1ccccc1 | 113 °C |
| O=C(O)CC(O)(c1ccccc1)c1ccccc1 | 210 °C |
| Cc1nn(-c2ccccc2)nc1CBr | 72 to 73 °C |
| Nc1cccc(C=CC(=O)c2ccccc2)c1 | 159 °C |
| CC1(C)Nc2cccc3c(N=Nc4ccc(N=Nc5ccccc5)c5ccccc45)ccc(c23)N1 | 120 to 124 °C |
| Cc1cc(O)c(Cl)cc1Cl | 73 °C |
| CCOC(=O)c1cc(C)n(Cc2ccccc2)n1 | 37 °C |
| O=S(=O)(Cl)c1cc(Cl)ccc1F | 43 °C |
| COc1cc(OC)cc(C(=O)Cl)c1 | 43 °C |
| Cc1nc(-c2ccc3c(c2)CCO3)sc1C(=O)Cl | 150 to 154 °C |

| Structure (SMILES) | melting point |
| --- | --- |
| Brc1n[nH]c(Br)n1 | 201 °C |
| COc1ccc(O)c([N+](=O)[O-])c1 | 79 °C |
| Cc1csc2ncnc(NN)c12 | 182 to 183 °C |
| CCCc1ccccc1O | 7 °C |
| Brc1cccc2cc(C=NNc3ccccc3)ccc12 | 151 °C |
| Cc1ccccc1OCC(=O)O | 155 to 157 °C |
| CC(=O)CC(=O)Nc1ccccc1C | 105 °C |
| Clc1ccc(Oc2ccccc2)cc1 | -8 °C |
| Oc1ccccc1N1CCNCC1 | 125 °C |
| CCCCCCCCCCCCCCCCC#N | 34 °C |
| CC1=CC(=O)C(C)=CC1=O | 123 to 126 °C |
| CCOC(=O)c1cc2c(=O)oc3ccccc3c2n(Cc2ccccc2)c1=O | 212 °C |
| O=C(O)CC[C@H](NC(=O)OCc1ccccc1)C(=O)O | 118 to 121 °C |
| CC(=O)Nc1cccnc1 | 131 to 133 °C |
| c1cc2occc2c(N2CCNCC2)n1 | 58 to 60 °C |
| Oc1cc(Cl)cc(Cl)c1Cl | 62 °C |
| C=C(C)C(=O)C(=CC(=O)O)OC | 83 °C |
| COc1ccccc1N1CCN(CC(C)N(C(=O)C2CCCCC2)c2ccccn2)CC1 (centres undefined) | 90 to 91 °C |
| O=[N+]([O-])c1cccnc1N1CCN(CCO)CC1 | 82 to 83 °C |
